Experimental data taken from patent US20260265238A1, “COMPOUNDS AND PHARMACEUTICAL COMPOSITIONS THAT DEGRADE SWI/SNF-RELATED MATRIX-ASSOCIATED ACTIN-DEPENDENT REGULATOR OF CHROMATIN SUBFAMILY A” (Plexium, Inc., priority 2023, published 2026).

Assays:
[1] = target: T1, SMARCA2-HiBiT HeLa cells (protein which is expressed from the SMARCA2 gene) (Homo sapiens, UniProt P51531); assay: SMARCA2 degradation assay (HiBiT-fusion HeLa cell line, 24 h, luminescence); assay type: cell-based
T1 construct: protein which is expressed from the SMARCA2 and SMARCA4 genes; host or cells: HeLa (SMARCA2-HiBiT engineered line)
T1 sequence (P51531 whole entry, the tested form may be a part): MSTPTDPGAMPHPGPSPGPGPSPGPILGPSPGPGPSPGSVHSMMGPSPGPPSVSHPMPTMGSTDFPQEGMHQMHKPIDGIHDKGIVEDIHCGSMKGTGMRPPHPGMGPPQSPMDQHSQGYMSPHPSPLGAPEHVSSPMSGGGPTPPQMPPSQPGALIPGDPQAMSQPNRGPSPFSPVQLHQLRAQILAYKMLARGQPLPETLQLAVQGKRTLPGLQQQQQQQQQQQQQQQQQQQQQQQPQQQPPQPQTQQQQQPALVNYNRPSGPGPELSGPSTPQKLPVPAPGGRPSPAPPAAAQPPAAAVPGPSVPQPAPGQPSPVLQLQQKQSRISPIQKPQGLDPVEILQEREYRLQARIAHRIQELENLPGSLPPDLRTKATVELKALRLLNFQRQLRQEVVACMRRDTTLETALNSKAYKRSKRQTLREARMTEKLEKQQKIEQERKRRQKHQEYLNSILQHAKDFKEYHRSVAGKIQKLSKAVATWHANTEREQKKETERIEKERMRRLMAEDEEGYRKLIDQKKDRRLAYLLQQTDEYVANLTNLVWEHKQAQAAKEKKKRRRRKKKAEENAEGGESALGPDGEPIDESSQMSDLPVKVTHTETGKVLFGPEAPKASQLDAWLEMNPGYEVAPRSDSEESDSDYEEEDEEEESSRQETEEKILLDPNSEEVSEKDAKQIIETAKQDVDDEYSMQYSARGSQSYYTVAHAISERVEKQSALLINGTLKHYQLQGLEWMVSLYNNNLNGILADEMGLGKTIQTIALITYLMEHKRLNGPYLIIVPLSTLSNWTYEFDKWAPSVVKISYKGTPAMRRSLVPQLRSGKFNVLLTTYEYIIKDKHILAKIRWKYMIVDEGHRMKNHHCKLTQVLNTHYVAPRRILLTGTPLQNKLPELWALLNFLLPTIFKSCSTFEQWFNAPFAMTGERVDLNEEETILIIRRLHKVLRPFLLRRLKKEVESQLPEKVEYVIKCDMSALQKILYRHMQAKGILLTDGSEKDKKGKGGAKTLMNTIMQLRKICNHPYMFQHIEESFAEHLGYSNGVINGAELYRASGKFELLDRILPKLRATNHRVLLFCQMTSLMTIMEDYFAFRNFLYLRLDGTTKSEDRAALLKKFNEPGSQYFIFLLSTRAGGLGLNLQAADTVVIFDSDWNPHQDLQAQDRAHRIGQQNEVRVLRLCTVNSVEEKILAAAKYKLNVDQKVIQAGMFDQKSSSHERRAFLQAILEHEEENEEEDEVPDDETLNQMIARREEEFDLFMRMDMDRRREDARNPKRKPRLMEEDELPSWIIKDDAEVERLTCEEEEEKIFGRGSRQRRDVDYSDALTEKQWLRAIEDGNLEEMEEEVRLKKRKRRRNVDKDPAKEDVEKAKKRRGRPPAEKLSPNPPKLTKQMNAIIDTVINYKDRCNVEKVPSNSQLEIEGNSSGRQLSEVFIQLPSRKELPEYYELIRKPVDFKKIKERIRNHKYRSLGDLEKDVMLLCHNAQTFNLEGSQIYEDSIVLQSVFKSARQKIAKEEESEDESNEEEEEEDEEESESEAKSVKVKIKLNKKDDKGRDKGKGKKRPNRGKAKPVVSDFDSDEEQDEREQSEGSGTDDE
In short: (§1)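 HiBiT-fusion HeLa lines, 8,000 cells/well, overnight attachment; cpd 10-pt series (typically 10 μM–300 pM), 24 h, 37° C. Lysis with LgBiT + HiBiT substrate, 10 min shaking at RT, luminescence read. DC50 from dose-response fit; % degradation also scored at 1 μM.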

[2] = target: T2, SMARCA4-HiBiT HeLa cells (protein which is expressed from the SMARCA4 gene) (Homo sapiens, UniProt P51532); assay: SMARCA4 degradation assay (HiBiT-fusion HeLa cell line, 24 h, luminescence); assay type: cell-based
T2 construct: protein which is expressed from the SMARCA2 and SMARCA4 genes; host or cells: HeLa (SMARCA4-HiBiT engineered line)
T2 sequence (P51532 whole entry, the tested form may be a part): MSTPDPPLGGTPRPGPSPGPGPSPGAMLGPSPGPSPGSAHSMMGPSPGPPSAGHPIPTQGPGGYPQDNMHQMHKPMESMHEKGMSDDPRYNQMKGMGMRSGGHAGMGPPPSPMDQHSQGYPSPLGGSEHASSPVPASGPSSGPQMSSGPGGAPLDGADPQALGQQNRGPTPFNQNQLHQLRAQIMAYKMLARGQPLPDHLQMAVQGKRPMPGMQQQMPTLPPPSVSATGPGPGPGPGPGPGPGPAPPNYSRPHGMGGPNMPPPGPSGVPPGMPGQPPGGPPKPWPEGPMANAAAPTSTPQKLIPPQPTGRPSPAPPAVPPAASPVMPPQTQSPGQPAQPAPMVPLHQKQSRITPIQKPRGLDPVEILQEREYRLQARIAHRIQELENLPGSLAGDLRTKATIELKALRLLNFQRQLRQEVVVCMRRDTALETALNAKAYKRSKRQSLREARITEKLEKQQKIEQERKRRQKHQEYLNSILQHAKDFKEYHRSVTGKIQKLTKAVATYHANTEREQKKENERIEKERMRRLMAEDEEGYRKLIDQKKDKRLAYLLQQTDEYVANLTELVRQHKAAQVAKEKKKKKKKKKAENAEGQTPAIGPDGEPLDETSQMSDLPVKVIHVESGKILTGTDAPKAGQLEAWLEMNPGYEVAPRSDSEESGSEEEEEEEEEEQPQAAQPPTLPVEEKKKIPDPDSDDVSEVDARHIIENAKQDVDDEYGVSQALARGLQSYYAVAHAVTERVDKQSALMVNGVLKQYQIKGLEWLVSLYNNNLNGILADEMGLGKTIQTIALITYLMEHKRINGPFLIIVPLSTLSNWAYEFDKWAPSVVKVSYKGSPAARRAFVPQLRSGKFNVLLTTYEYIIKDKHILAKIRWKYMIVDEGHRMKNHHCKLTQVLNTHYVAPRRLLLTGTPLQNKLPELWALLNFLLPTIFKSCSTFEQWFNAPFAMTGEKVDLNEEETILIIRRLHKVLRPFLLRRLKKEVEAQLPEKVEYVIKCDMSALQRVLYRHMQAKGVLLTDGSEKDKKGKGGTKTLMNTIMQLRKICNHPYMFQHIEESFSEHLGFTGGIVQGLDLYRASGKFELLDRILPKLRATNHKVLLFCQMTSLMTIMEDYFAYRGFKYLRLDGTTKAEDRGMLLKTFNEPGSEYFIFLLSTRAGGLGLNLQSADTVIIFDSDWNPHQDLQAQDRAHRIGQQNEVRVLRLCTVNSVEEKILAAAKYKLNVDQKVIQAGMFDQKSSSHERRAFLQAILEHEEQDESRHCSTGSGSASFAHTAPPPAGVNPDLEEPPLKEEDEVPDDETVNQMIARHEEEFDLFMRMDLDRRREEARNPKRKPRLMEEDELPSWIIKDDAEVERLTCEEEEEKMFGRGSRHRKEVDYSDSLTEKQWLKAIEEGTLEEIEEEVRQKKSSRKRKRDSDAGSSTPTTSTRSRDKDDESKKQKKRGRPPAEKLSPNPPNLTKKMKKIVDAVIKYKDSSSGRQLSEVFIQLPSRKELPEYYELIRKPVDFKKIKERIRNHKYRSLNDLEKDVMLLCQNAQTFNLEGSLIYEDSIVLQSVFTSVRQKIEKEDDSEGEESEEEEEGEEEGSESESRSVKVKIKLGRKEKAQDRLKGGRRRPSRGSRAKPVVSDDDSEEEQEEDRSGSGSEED
In short: as §1

Row | Structure (SMILES) | DC50 [1] [nM] | SMARCA2 % Degradation @ 1 μM [1] | DC50 [2] [nM] | inhibition at 1 µM [2] [%]
1 | Nc1nnc(-c2ccccc2O)cc1N1CCCN(c2ccnc(C#CCN3CCOC3=O)n2)CC1 [Compound P-374, 3-[3-(4-{4-[3-amino-6-(o-hydroxyphenyl)-4-pyridazinyl]-1,4-diazepan-1-yl}-2-pyrimidinyl)-2-propynyl]-1,3-oxazolidin-2-one] | 50 to 500 | +++ (+++=>70%) | 50 to 500 | 30 to 70
2 | Cn1cc(C#Cc2nccc(N3CCCN(c4cc(-c5ccccc5O)nnc4N)CC3)n2)cn1 [Compound P-346, 0-[6-amino-5-(4-{2-[2-(1-methyl-4-pyrazolyl)ethynyl]-4-pyrimidinyl}-1,4-diazepan-1-yl)-3-pyridazinyl]phenol] | 500 to 5000 | ++ (++=30-70%) | 500 to 5000 | < 30
3 | C[C@@H]1CCN(c2cc(-c3ccccc3O)nnc2N)CCN1c1ccnc(C#CCN2[C@H](C)COC[C@@H]2C)n1 [Compound P-260, o-{5-[(R)-4-(2-{3-[(3R,5S)-3,5-dimethyl-4-morpholiny1]-1-propynyl}-4-pyrimidinyl)-5-methyl-1,4-diazepan-1-yl]-6-amino-3-pyridaziny1}phenol] | < 50 | ++ (++=30-70%) | 50 to 500 | < 30
4 | Nc1nnc(-c2ccccc2O)cc1N1CCN(c2ccnc(C#CCNC(=O)c3cc4ncccn4n3)n2)CC1 [Compound P-93, N-(3-(4-(4-(3-amino-6-(2-hydroxyphenyl)pyridazin-4-yl)piperazin-1-yl)pyrimidin-2-yl)prop-2-yn-1-yl)pyrazolo[1,5-a]pyrimidine-2-carboxamide] | 50 to 500 | ++ (++=30-70%) | < 50 | 30 to 70
5 | Nc1nnc(-c2ccccc2O)cc1N1C2CCC1CN(c1ccnc(C#CCn3ccnc3)n1)C2 [Compound P-284, 0-[6-amino-5-(3-{2-[3-(1-imidazolyl)-1-propynyl]-4-pyrimidinyl}-3,8-diazabicyclo[3.2.1]oct-8-yl)-3-pyridazinyl]phenol] | 50 to 500 | ++ (++=30-70%) | 500 to 5000 | < 30
6 | C[C@@H]1CCN(c2cc(-c3ccccc3O)nnc2N)CCN1c1ccnc(C#CCN2CC(F)(F)[C@H]2C)n1 [Compound P-271, 0-{5-[(R)-4-(2-{3-[(R)-3,3-difluoro-2-methyl-1-azetidinyl]-1-propynyl}-4-pyrimidinyl)-5-methyl-1,4-diazepan-1-yl]-6-amino-3-pyridazinyl}phenol] | 50 to 500 | ++ (++=30-70%) | 50 to 500 | < 30
7 | C[C@@H]1CCN(c2cc(-c3ccccc3O)nnc2N)CCN1c1ccnc(C#CCN2CCC[C@@H]2C)n1 [Compound P-233, o-{5-[(R)-4-(2-{3-[(S)-2-methyl-1-pyrrolidinyl]-1-propynyl}-4-pyrimidinyl)-5-methyl-1,4-diazepan-1-yl]-6-amino-3-pyridazinyl} phenol] | < 50 | ++ (++=30-70%) | < 50 | 30 to 70
8 | Nc1nnc(-c2ccccc2O)cc1OC1CC2CN(c3ccnc(C#CCN4CCOCC4)n3)CC2C1 (stereo not drawn) [Compound P-220, o-(6-amino-5-{3-[2-(3-morpholino-1-propynyl)-4-pyrimidinyl]-3-azabicyclo[3.3.0]oct-7-yloxy}-3-pyridazinyl)phenol] | 50 to 500 | +++ (+++=>70%) | 50 to 500 | 30 to 70
9 | C[C@@H]1CCN(c2cc(-c3ccccc3O)nnc2N)CCN1c1ccnc(C#CCN2C3COCC2C3)n1 [Compound P-184, o-{5-[(R)-5-methyl-4-(2-{3-(3-oxa-6-azabicyclo[3.1.1]hept-6-yl)-1-propynyl}-4-pyrimidinyl)-1,4-diazepan-1-yl]-6-amino-3-pyridazinyl}phenol] | < 50 | +++ (+++=>70%) | < 50 | 30 to 70
